From PubChem BioAssay AID256 (DTP/NCI, 2004)
Several values for one entry are separate records, joined by “and”; a condition that tells them apart may be missing. Equal values may be shown once. Toxic doses and inconclusive results are not listed.

Tested on: CD2F1 mice, L1210 leukemia ip, survival T/C
Assay: NCI In Vivo Anticancer Drug Screen. Data for tumor model L1210 Leukemia (intraperitoneal) in CD2F1 (CDF1) mice
Conditions: higher = longer survival
Procedure, shortened: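 Ratio T/C, where T is the treated-group value and C the vehicle-dosed control value, from mice implanted with a transplantable tumor.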

[1] = endpoint: mean survival time, dose: 100.0 mg/kg/injection, schedule: Q01DX009 (ip), vehicle: saline with Tween-80
[2] = endpoint: mean survival time, dose: 200.0 mg/kg/injection, schedule: Q01DX009 (ip), vehicle: saline with Tween-80

In the case of `COc1ccccc1C(O)(c1ccccc1OC)c1c(OC)cccc1OC`, the T/C [1] was 97 % of control, the T/C [2] was 93 % of control and the T/C (endpoint: mean survival time, dose: 400.0 mg/kg/injection, schedule: Q01DX009 (ip), vehicle: saline with Tween-80) was 88 % of control.

For `COc1ccc(COc2ccc([N+](=O)[O-])cc2)cc1`, the T/C (endpoint: mean survival time, dose: 100.0 mg/kg/injection, schedule: Q04DX002 (ip), vehicle: saline with Tween-80) was 87 % of control and the T/C (endpoint: mean survival time, dose: 400.0 mg/kg/injection, schedule: Q04DX002 (ip), vehicle: saline with Tween-80) was 87 % of control.

In the case of `[Pd+2].[S-]CC[S-]`, the T/C (endpoint: mean survival time, dose: 3.13 mg/kg/injection, schedule: Q04DX003 (ip), vehicle: distilled water + Tween-80) was 101 % of control, the T/C (endpoint: mean survival time, dose: 6.25 mg/kg/injection, schedule: Q04DX003 (ip), vehicle: distilled water + Tween-80) was 102 % of control and the T/C (endpoint: mean survival time, dose: 12.5 mg/kg/injection, schedule: Q04DX003 (ip), vehicle: distilled water + Tween-80) was 101 % of control. For the same molecule, the T/C (endpoint: mean survival time, dose: 25.0 mg/kg/injection, schedule: Q04DX003 (ip), vehicle: distilled water + Tween-80) was 104 % of control, the T/C (endpoint: mean survival time, dose: 50.0 mg/kg/injection, schedule: Q04DX003 (ip), vehicle: distilled water + Tween-80) was 95 % of control and the T/C (endpoint: mean survival time, dose: 100.0 mg/kg/injection, schedule: Q04DX003 (ip), vehicle: distilled water + Tween-80) was 95 % of control. For the same molecule, the T/C (endpoint: mean survival time, dose: 200.0 mg/kg/injection, schedule: Q04DX003 (ip), vehicle: distilled water + Tween-80) was 95 % of control.

With `CC(=O)NCC(=O)[O][Sn]([c]1ccc(C)cc1)([c]1ccc(C)cc1)[c]1ccc(C)cc1` the T/C (endpoint: mean survival time, dose: 0.19 mg/kg/injection, schedule: Q01DX009 (ip), vehicle: saline) was 97 % of control, the T/C (endpoint: mean survival time, dose: 0.39 mg/kg/injection, schedule: Q01DX009 (ip), vehicle: saline) was 105 % of control and the T/C (endpoint: mean survival time, dose: 0.78 mg/kg/injection, schedule: Q01DX009 (ip), vehicle: saline) was 103 % of control and 111 % of control. The T/C (endpoint: mean survival time, dose: 1.56 mg/kg/injection, schedule: Q01DX009 (ip), vehicle: saline) was 100 % of control and the T/C (endpoint: mean survival time, dose: 3.12 mg/kg/injection, schedule: Q01DX009 (ip), vehicle: saline) was 91 % of control.

With `CC([NH-])CC(C)[NH-].O=C(O)C(=O)O.[Pt+2]` (stereo not drawn) the T/C (endpoint: mean survival time, dose: 12.5 mg/kg/injection, schedule: Q04DX003 (ip), vehicle: saline with Tween-80) was 169 % of control, the T/C (endpoint: mean survival time, dose: 12.5 mg/kg/injection, schedule: Q04DX003 (ip), vehicle: saline) was 156 % of control and the T/C (endpoint: mean survival time, dose: 25.0 mg/kg/injection, schedule: Q04DX003 (ip), vehicle: saline with Tween-80) was 100 % of control. The T/C (endpoint: mean survival time, dose: 25.0 mg/kg/injection, schedule: Q04DX003 (ip), vehicle: saline) was 186 % of control.

`CN(C)CCOCCOc1ccc(C(C)(C)CC(C)(C)C)cc1` was tested, and the T/C (endpoint: mean survival time, dose: 1.5 mg/kg/injection, schedule: Q01DX009 (ip), vehicle: saline with Tween-80) was 105 % of control, the T/C (endpoint: mean survival time, dose: 3.0 mg/kg/injection, schedule: Q01DX009 (ip), vehicle: saline with Tween-80) was 97 % of control and the T/C (endpoint: mean survival time, dose: 6.0 mg/kg/injection, schedule: Q01DX009 (ip), vehicle: saline with Tween-80) was 100 % of control.

For `NC(C(=O)[O-])C(=O)[O-].NC1CCCCC1N.[Pt+4]`, the T/C (endpoint: median survival time, dose: 1.0 mg/kg/injection, schedule: Q04DX003 (ip), vehicle: water) was 109 % of control and the T/C (endpoint: median survival time, dose: 2.0 mg/kg/injection, schedule: Q04DX003 (ip), vehicle: water) was 124 % of control.

In the case of `COC(=O)CCS(=O)(=O)CCC(=O)OC`, the T/C (endpoint: mean survival time, dose: 100.0 mg/kg/injection, schedule: Q04DX003 (ip), vehicle: Klucel (hydroxypropylcellulose) (HPC)) was 103 % of control, the T/C (endpoint: mean survival time, dose: 200.0 mg/kg/injection, schedule: Q04DX003 (ip), vehicle: Klucel (hydroxypropylcellulose) (HPC)) was 100 % of control and the T/C (endpoint: mean survival time, dose: 400.0 mg/kg/injection, schedule: Q04DX003 (ip), vehicle: Klucel (hydroxypropylcellulose) (HPC)) was 103 % of control.

In the case of `NC(=O)c1csc(COC(CO)CO)n1`, the T/C (endpoint: median survival time, dose: 15.38 mg/kg/injection, schedule: Q01DX009 (ip), vehicle: water) was 93 % of control, the T/C (endpoint: median survival time, dose: 30.75 mg/kg/injection, schedule: Q01DX009 (ip), vehicle: water) was 97 % of control and the T/C (endpoint: median survival time, dose: 61.5 mg/kg/injection, schedule: Q01DX009 (ip), vehicle: water) was 101 % of control. The T/C (endpoint: median survival time, dose: 123.0 mg/kg/injection, schedule: Q01DX009 (ip), vehicle: water) was 100 % of control.

`C1CC[N-]CC1.C1CC[N-]CC1.C1CC[N-]CC1.[Cl][Rh]([Cl])[Cl]` was tested, and the T/C (endpoint: mean survival time, dose: 12.5 mg/kg/injection, schedule: Q01DX009 (ip), vehicle: saline with Tween-80) was 99 % of control and the T/C (endpoint: mean survival time, dose: 25.0 mg/kg/injection, schedule: Q01DX009 (ip), vehicle: saline with Tween-80) was 99 % of control.

For `O=S(=O)(NC(=S)Nc1ccc(Cl)cc1)c1ccccc1`, the T/C [1] was 93 % of control and the T/C [2] was 109 % of control.

For `CCC12OC3(CC)C4C(=O)OC1C1(CC)OC4(CC)C3C(=O)OC21`, the T/C (endpoint: mean survival time, dose: 100.0 mg/kg/injection, schedule: Q01DX001 (ip), vehicle: saline) was 103 % of control, the T/C (endpoint: mean survival time, dose: 100.0 mg/kg/injection, schedule: Q04DX003 (ip), vehicle: saline) was 102 % of control and the T/C (endpoint: mean survival time, dose: 200.0 mg/kg/injection, schedule: Q01DX001 (ip), vehicle: saline) was 102 % of control. The T/C (endpoint: mean survival time, dose: 200.0 mg/kg/injection, schedule: Q04DX003 (ip), vehicle: saline) was 100 % of control, the T/C (endpoint: mean survival time, dose: 400.0 mg/kg/injection, schedule: Q01DX001 (ip), vehicle: saline) was 96 % of control and the T/C (endpoint: mean survival time, dose: 400.0 mg/kg/injection, schedule: Q04DX003 (ip), vehicle: saline) was 94 % of control.
